Data as given in PubChem BioAssay AID540258 (Broad Institute, 2011).
Activity calls are given as the source filed them.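 Rule for the calls: active = fitted curve reaching 40% activation at or below the top valid dose tested; inconclusive = flat curve at 30 to 70% activation, or poor fit; inactive = the rest.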

Tested on: SK-MEL-5 TRPM1 promoter luciferase reporter, 24 h
Experiment: MITF activators via TRPM1 promoter reporter, dose response, SK-MEL-5 cells, luciferase, cherry-pick samples (AID 540258);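 note: potency for activators that raise TRPM1 promoter luciferase signal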

| SMILES | AC40 |
| --- | --- |
| C/C(=C\c1ccc(N)cc1)c1nc2ccccc2[nH]1 | 1.72 µM |
| COc1ccc(-c2nnc(-c3ccc4ccccc4c3)o2)cc1 | 4.3 µM |
| CCCC(=O)N1c2ccc(-c3csc(N)n3)cc2CC1C (configuration not stated) | 1.65 µM |
| Cc1cc2c([nH]c3ccccc32)c2c1OC(C)(C)C=C2 | 3.8 µM |
| c1ccc(Nc2ccc(Nc3ccccc3)cc2)cc1 | 23.7 µM |
| ClCCn1cnc2c(SCc3ccccc3)ncnc21 | 3.64 µM |
| COC(=O)C1CCc2c(ccc3c2CCCC3)C1=O (configuration not stated) | 2.03 µM |
| O=c1oc(-c2cccs2)nc2sc3c(c12)CCCCC3 | 6.42 µM |
| Cc1cccc2nc(COc3ccc4ccccc4c3Br)cn12 | 1.27 µM |
| CCc1ccc(NC(=O)C(=S)NC2CCCCC2)cc1 | 0.542 µM |
| CCc1ccc2[nH]c3nc(C)cc(C)c3c(=O)c2c1 | 4 µM |
| Cc1ccc(NC(=O)N2CCc3ccccc3C2)cc1C | 4.47 µM |
| COC(=O)Cc1ccc(OCc2ccc(Cl)nc2)cc1 | 4.13 µM |
| COc1ccc2cc(CCNC(=O)c3cccs3)c(=O)[nH]c2c1 | 1.95 µM |
| Cc1ccc(O)c(C2=Nc3ccccc3C2(C)C)c1 | 8.51 µM |
| O=C(Cc1ccccc1)Nc1nc(-c2cccs2)cs1 | 14.7 µM |
| Oc1ccc(/C=N/Nc2cccc(Cl)n2)c(O)c1 | 0.584 µM |
| Oc1ccc(-c2nccc(-c3ccccn3)n2)cc1 | 4.35 µM |
| COc1ccc(C2Nc3ccccc3C(=O)N2c2ccc(C)cc2)cc1Cn1nnc2ccccc21 (configuration not stated) | 17.2 µM |
| Cc1cccc(-c2nnc3sc(-c4ccccc4)nn23)c1 | 12.2 µM |
| O=C(NOCc1ccccc1)OCc1ccccc1 | 6.91 µM |
| CC(C)Nc1cc(C(C)(C)C)nc2c(-c3ccccc3)cnn12 | 8.53 µM |

| SMILES | AC40 |
| --- | --- |
| O=C(Nc1ccccc1Cl)c1ccc2nccnc2c1 | 4.21 µM |
| O=C(O)c1ccc(/C=C/c2ccc3cccc(O)c3n2)cc1 | 0.876 µM |
| CSc1nccc(N/N=C/c2ccccc2)n1 | 0.491 µM |
| COC(=O)/C(=C1\Oc2ccc(C(C)(C)C)cc2S1)C(F)(F)F | 3.81 µM |
| Cc1ccc(Nc2ncnc3ccccc23)cc1 | 2.23 µM |
| O=C(Nc1ccc2ccccc2c1)c1cc(F)c(F)cc1Cl | 1.86 µM |
| O=C(NCCc1ccc(O)cc1)c1ccc(Cl)cc1 | 2.89 µM |
| O=C(NCc1ccccn1)Nc1ccc(Br)cc1Cl | 14.3 µM |
| c1ccc(CSc2ccc(-c3ccc4c(c3)OCO4)nn2)cc1 | 2.38 µM |
| CC(=O)c1sc(NC(=O)c2ccccc2F)nc1-c1ccccc1 | 3.02 µM |
| Cc1cc(Cl)ccc1OCc1cn2cccnc2n1 | 1.41 µM |
| CC(C)c1ccc(/C=N/NC(=O)C2CCCC2)cc1 | 2.44 µM |
| COC(=O)c1c(-c2ccc(S(C)(=O)=O)cc2)sc2ccc(OC)cc12 | 2.76 µM |
| COc1ccc2cc(C(=O)NCCc3ccccc3)[nH]c2c1 | 11.6 µM |
| FC(F)Oc1ccc(N=C2SCC3CCCCN23)cc1 (configuration not stated) | 2.53 µM |
| COc1cc(CNCc2ccccn2)ccc1OCc1ccc(Cl)c(Cl)c1 | 9.74 µM |
| COC(=O)c1ccc(Nc2ncnc3sccc23)cc1 | 7.47 µM |
| COc1cccc(NC(=O)c2csc3c2CCCC3)c1 | 4.8 µM |
| CCc1cccc2c(C(=O)CN3C(=O)NC4(CCCCCC4)C3=O)c[nH]c12 | > 35 µM (inactive) |
| CCc1ccc(N2Cc3ccccc3C2)cc1 | 2.25 µM |
| CC1CCc2sc(C(=O)Nc3ccc(C(N)=O)cc3)cc2C1 (configuration not stated) | 15.4 µM |
| Clc1ccc(-c2cn3c(n2)CCC3)cc1 | > 35 µM (inactive) |

| SMILES | AC40 |
| --- | --- |
| Cn1cc(Br)c(C(=O)Nc2sc3c(c2C(N)=O)CCCC3)n1 | 10.4 µM |
| Cc1ccc(C(=O)N(CCN2CCCCC2)CC2CCCN(C3CCCC3)C2)s1 (configuration not stated) | 5.39 µM |
| CSc1ccccc1OCc1cc(C(=O)N[C@H]2CCCCNC2=O)no1 | 2.22 µM |
| O=C(NC1CCCCCC1)c1cc2c(=O)n3ccccc3nc2s1 | 8.63 µM |
| CCN(N=O)c1ccc(C=C2C=Cc3ccccc32)cc1 | 0.238 µM |
| FC(F)(F)c1cnc(-c2cnc(-c3cccnc3)nc2)c(Cl)c1 | 3.02 µM |
| Cc1ccn2c(C(=O)c3ccc(Cl)cc3)cnc2c1 | 0.803 µM |
| Clc1ccc(C#Cc2cccnc2)cc1 | 5.78 µM |
| O=C(CC1CCCC1)Nc1ccc(Br)cc1 | 11.6 µM |
| CCc1c(C(=O)Nc2ccc(C)c(C)c2)[nH]c(C)c1C(C)=O | 5.17 µM |
| Cc1ccc(Nc2nnc(-c3ccccc3N)o2)cc1C | 1.59 µM |
| Cc1nnc(NC(=O)c2ccc(N3CCCC3=O)cc2)s1 | > 35 µM (inactive) |
| O=C(CCCc1ccccc1)c1ccccc1 | 0.326 µM |
| O=C(NC1CC1)c1sc2cc(Cl)ccc2c1Cl | 4.59 µM |
| COc1ccc(OCc2cc(C(=O)NC(C)c3cnn(C)c3)no2)c(Cl)c1 (configuration not stated) | 12.3 µM |
| Cc1ccc(CONC(=O)c2ccc(C)cc2)cc1 | 6.05 µM |
| CC(C)(C)C(=O)c1sc(Nc2ccccc2)nc1N | 1.68 µM |
| COCc1ccc(-c2c(-c3ccc(OC)cc3)oc(=O)c3cc(OC)c(OC)cc23)cc1 | 3.05 µM |
| CC1CCN(C(=O)c2cc(-c3ccccc3O)on2)CC1 | 0.383 µM |
| Cc1ccc(CNc2ccc3c(c2)ncn3C(C)C)cc1 | 2.63 µM |
| O=C(Nc1ccc(O)cc1)c1c(O)c2c([nH]c1=O)CCCC2 | 0.664 µM |
| Cc1ccc(NC(=O)c2ccc3ccccc3n2)cc1S(=O)(=O)N(C)C | 2.37 µM |

| SMILES | AC40 |
| --- | --- |
| C/C(=C\C(=O)c1cccnc1)Nc1ccc(C)c(C)c1 | 6.87 µM |
| CC(=O)c1sc(NC(=O)c2ccc3c(c2)OCO3)nc1C | 1.39 µM |
| N/C(=N\OC(=O)c1ccc2c(c1)OCO2)c1ccc(Cl)cc1 | 5.31 µM |
| COC(=O)C1CCCCN1C(=O)c1ccc2oc(Cc3ccccc3)nc2c1 (configuration not stated) | 3.18 µM |
| Cc1ccc(S(=O)(=O)Nc2cccc(-c3ccc(N4CCCCCC4)nn3)c2)cc1 | 4.9 µM |
| Oc1ccc(N=Nc2ccccc2)cc1 | 3.98 µM |
| Nc1nc(CSc2ccccn2)nc(Nc2ccccc2)n1 | 1.31 µM |
| C/C(=N\OC(=O)Nc1ccccc1)c1ccc(C)cc1 | 3.45 µM |
| O=C(Nc1ccc(Cl)c(Cl)c1)OCc1cccnc1 | 7.44 µM |
| c1cc(-c2cc3cc4c(cc3cn2)OCO4)cs1 | 2.12 µM |
| Fc1ccccc1COc1ccc(C(=S)N2CCCC2)cc1 | 4.34 µM |
| CCS(=O)(=O)c1ccc2oc(Nc3ccccc3C)nc2c1 | 3.65 µM |
| CC1CCC(NC(=O)c2cc3ccccc3cc2O)CC1 (configuration not stated) | 2.64 µM |
| Cc1nc2cc3nc(C)sc3cc2s1 | 7.83 µM |
| O=Cc1ccc(OCc2ccc3ccccc3c2)cc1 | 1.4 µM |
| Cc1ccc2cc(/C=N/Nc3ccc(C(=O)O)cc3)c(Cl)nc2c1 | 1.37 µM |
| COc1ccc(/C=C2\OC(=O)c3c(OC)cccc32)cc1OC | 0.998 µM |
| CCCC(=O)N/C(N)=N/c1nc2ccccc2o1 | 0.558 µM |
| CC(C)c1ccc(NC(=O)c2snc3ccc(Cl)cc23)cc1 | 1.11 µM |
| COc1ccc(NC(=O)C2Cc3ccccc3O/C2=N\O)cc1 (configuration not stated) | 17 µM |
| COc1ccc(-c2cc3nc4ccccc4n3c(N)c2C#N)cc1 | 1.83 µM |
| Cc1ccc(NC(=O)CC(=O)c2ccccc2)cc1C | 3.33 µM |

| SMILES | AC40 |
| --- | --- |
| c1ccc2oc(CCc3nc4ccccc4o3)nc2c1 | > 35 µM (inactive) |
| COc1nc(C)ccc1-c1noc(-c2ccncc2)n1 | 2.67 µM |
| c1ccc(-c2noc(COc3ccc4c(c3)OCO4)n2)cc1 | 2.25 µM |
| Cc1ccccc1-c1nc(Cc2ccccc2)no1 | 2.78 µM |
| Clc1ccc(COn2nnc3ccccc32)c(Cl)c1 | 0.941 µM |
| CCCn1nnc(NC(=O)c2ccc(-c3ccccc3)cc2)n1 | 2.69 µM |
| Cn1c2ccccc2c(=O)c2cc(C#Cc3ccccn3)ccc21 | > 35 µM (inactive) |
| Nc1ccc(Oc2cc(N)cc(Oc3ccccc3)c2)cc1 | 4.99 µM |
| Nc1nonc1-n1nnc(C(=O)N/N=C/c2ccc(OCc3ccccc3F)cc2)c1CN1CCCCC1 | 17.1 µM |
| CC(C)(C)c1ccc(-c2noc(-c3ccno3)n2)cc1 | 0.472 µM |
| CCCc1cc(C(=O)Nc2cc(Cl)ccc2O)no1 | 2.99 µM |
| COc1ccccc1N1CCN(/N=C/c2cccc(Cl)c2)CC1 | 1.45 µM |
| CC(C)(C)c1ccc(SCCc2ccccn2)cc1 | 1.98 µM |
| Cc1[nH]n(-c2cccc(Cl)c2)c(=O)c1C=NCC(C)C | 5.25 µM |
| CN(C(=O)c1cc2sccc2n1C)C1CCCCC1 | > 35 µM (inactive) |
| Nc1ccc2cc3ccccc3cc2c1 | 2.88 µM |
| COc1cc(SC)ccc1C(=O)NCC1CCCCC1 | 14.4 µM |
| Nc1ccccc1C#Cc1ccccc1 | 0.777 µM |
| COc1ccc(C(=S)Nc2ccc(C)cc2)cc1 | 2.65 µM |
| Nc1c(C(=O)N2CCCC2)sc2nc(-c3ccccc3)ccc12 | 6.19 µM |
| COc1cccc(NC(=O)Nc2ccc3c(c2)nnn3C)c1 | 4.88 µM |
| CC(C)CNC(=O)C1CCN(Cc2ccc(OCc3ccccc3)cc2)CC1 | 20.6 µM |

| SMILES | AC40 |
| --- | --- |
| O=C(Nc1ccc(N2CCCCC2)cc1)c1cncc(Br)c1 | 0.969 µM |
| COc1cc(OC)c2c(-c3cccc(/C=C/c4ccc(F)cc4)c3)cc(=O)oc2c1 | 6.95 µM |
| COc1ccccc1NC(=O)Nc1nc2ccc(S(N)(=O)=O)cc2s1 | 1.57 µM |
| Cn1c(SCc2ccccc2Cl)nc2ccccc21 | 0.794 µM |
| O=C(Nc1ccc(O)cc1)c1cc2ccccc2c(=O)s1 | 2.3 µM |
| O=C(Nc1ccccc1O)c1cc2cc(Br)ccc2oc1=O | 2.18 µM |
| FC(F)(F)c1ccnc(Oc2ccc(C3=NCCS3)cc2)c1 | 0.654 µM |
| CC(C)Cc1cc(C(=O)Nc2ccc(Br)cc2)no1 | 1.8 µM |
| COc1ccc(-c2cn3nc(C)c(C)nc3n2)cc1OC | 5.89 µM |
| O=S(=O)(c1ccccc1)n1ccc(-c2cnc(-c3ccccc3)s2)n1 | 7.87 µM |
| O=c1nc2sc3ccccc3n2c(=O)n1-c1ccc(Cl)cc1 | 3.48 µM |
| Cc1ccc(NCC(=O)c2ccc(C)cc2)cc1 | 9.65 µM |
| CCCCNc1c(-c2ccc(-c3cccc(Cl)c3)cc2)nc2ccccn12 | 5.54 µM |
| O=c1c2ccccc2oc2cc(-c3ccc4cc[nH]c4c3)ccc12 | 2.25 µM |
| Cc1nc(N2CCN(S(=O)(=O)c3ccccc3)CC2)c2cc(-c3ccccc3)sc2n1 | 22.9 µM |
| COC(=O)c1ccc(N=NN2CCCCC2)cc1 | 1.34 µM |
| Nc1ccc(-c2nc3ncccc3o2)c(O)c1 | 5.79 µM |
| CC(=O)Nc1cccc(-c2nc3ccc(NC(C)=O)cc3s2)c1 | 1.29 µM |
| Cc1nn2cc(-c3ccc(Cl)cc3)cnc2c1Cl | 8.04 µM |
| Brc1ccccc1-n1nnc(-c2nccs2)n1 | 2.52 µM |
| CC1(C)CNC(=O)c2sc(NC(=O)c3ccccc3)nc2C1 | 21.9 µM |
| O=C(Nc1ccccc1)O/N=C/c1ccc(F)cc1 | 0.883 µM |
